Patent US3950351A, “New derivatives of 2-benzamido-5-nitro thiazoles” (S.P.R.L. Phavic, priority 1973, dated 1976)

Legend:
Biomphalaria glabrata = experiment: Molluscicidal activity test; type: in vivo; settings: 24 h exposure at 26°C, observed again after 24 h, 10, 1 and 0.1 ppm tested, read-out: dose at which active against Biomphalaria glabrata
Description: For determining the molluscicidal activity, the following test is used:
Two to four weeks old molluscs are used. Five molluscs having the same size are put in the same container and covered with a testing solution at a temperature of 26°C during 24 hours. After rinsing, the animals are again observed after 24 hours. The total duration of this test therefore is 48 hours.
Testing solutions containing respectively 10, 1 and 0.1 parts per million of the compounds to be tested in water having a hardness of 10° (hydrotimetric) are used.
The sensitivity of the mollusc strain is standardized with known reference molluscicides such as Niclosamide (Registered Trademark).

Hymenolepis nana [1] = experiment: Tests on Hymenolepis nana in mice, anthelminthic activity, single dose (technique of R. CAVIER); type: in vivo; set-up: Mortality: unit not given here
Text: Tests on Hymenolepis nana in mice have also been performed in order to determine the anthelminthic activity of various cmpounds of formula I, according to the technique of R. CAVIER. […] Four hours later, the animals have been purged by means of sodium sulfate.

Acute toxicity in mice = settings: mouse, in vivo
Text: Toxicity investigations have shown that the compounds of formula I have a very low acute toxicity both on oral administration and on intraperitoneal administration to mice.

Hymenolepis nana [2] = experiment: Test for anthelminthics, cestodes (R. CAVIER; R. CAVIER and M. J. NOTTEGHEM); type: in vivo; set-up: Hymenolepis nana: (4) percentage of activity: concentration or dose not given beside the values; settings: Table II; 10 subjects
Text: (§1) Biological tests have been performed with a great number of compounds of formula I, using the following techniques: 1)- Test for amoebicidal activity described by R. CAVIER, Ann. pharm. franc. 1960, 18, pages 583-589 and by R. CAVIER and J. CENAC, Bull. Soc. Path. exot. 1972, 65, pages 399-404. 2) - Test for trichomonacidal activity described by R. Cavier and P. BUOT, Ann. Pharm. franc., 1964, 22, pages 211-216 and by R. CAVIER and J. CENAC, Semaine des Hopitaux, 1972, 48, pages 391-394. 3)- Tests for anthelminthics described for nematodes (such as Syphacia obvelata) by R. CAVIER, Bull. Soc. Path. exot. 1962, 55, pages 412-417, and for cestodes (such as Hymenolepis nana), by R. CAVIER, Ann. pharm. franc. 1956, 14, pages 545-552 and by R. CAVIER and M. J. NOTTEGHEM, Ann. Pharm. franc., 1968, 28, pages 603-606.

Syphacia obvelata = experiment: Test for anthelminthics, nematodes (R. CAVIER); type: in vivo; set-up: Syphacia: (4) percentage of activity: concentration or dose not given beside the values; settings: Table II; 10 subjects
Text: as §1

Structure (SMILES)	minimal effective concentration (Biomphalaria glabrata) [µg/mL]	Hymenolepis nana: (2) number of dead subjects (Hymenolepis nana [2])	Hymenolepis nana: (3) number of subjects from which the parasite has been eradicated (Hymenolepis nana [2])	Hymenolepis nana: (4) percentage of activity (Hymenolepis nana [2]) [%]	Syphacia: (2) number of dead subjects (Syphacia obvelata)	Syphacia: (3) number of subjects from which the parasite has been eradicated (Syphacia obvelata)	Syphacia: (4) percentage of activity (Syphacia obvelata) [%]	other results
CC(=O)Oc1ccccc1C(=O)Nc1ncc([N+](=O)[O-])s1 [PH 5776]	1	0	10	100	0	6	60	Mice from which parasite has been eradicated, number (Hymenolepis nana [1]; 25 mg/kg): 20; Mice from which parasite has been eradicated, percentage (Hymenolepis nana [1]; 25 mg/kg): 100%; Mortality (Hymenolepis nana [1]; 25 mg/kg): 0; Mice from which parasite has been eradicated, number (Hymenolepis nana [1]; 50 mg/kg): 30; Mice from which parasite has been eradicated, percentage (Hymenolepis nana [1]; 50 mg/kg): 100%; Mortality (Hymenolepis nana [1]; 50 mg/kg): 0; Mice from which parasite has been eradicated, number (Hymenolepis nana [1]; 100 mg/kg): 10; Mice from which parasite has been eradicated, percentage (Hymenolepis nana [1]; 100 mg/kg): 100%; Mortality (Hymenolepis nana [1]; 100 mg/kg): 0; Mice from which parasite has been eradicated, number (Hymenolepis nana [1]; 200 mg/kg): 10; Mice from which parasite has been eradicated, percentage (Hymenolepis nana [1]; 200 mg/kg): 100%; Mortality (Hymenolepis nana [1]; 200 mg/kg): 0; LD50 (Acute toxicity in mice; ip, intraperitoneal administration): > 95 mg/kg; LD50 (Acute toxicity in mice; oral administration): > 4000 mg/kg
CC(=O)Oc1cccc(C(=O)Nc2ncc([N+](=O)[O-])s2)c1 [PH 6045]	10	0	4	40	0	0	0	
CC(=O)Oc1ccc(C(=O)Nc2ncc([N+](=O)[O-])s2)cc1 [PH 6046]		0	3	30	0	2	20	
CCC(=O)Oc1ccccc1C(=O)Nc1ncc([N+](=O)[O-])s1 [PH 6049]	1	0	10	100	0	2	20	Mice from which parasite has been eradicated, number (Hymenolepis nana [1]; 25 mg/kg): 8; Mice from which parasite has been eradicated, percentage (Hymenolepis nana [1]; 25 mg/kg): 40%; Mortality (Hymenolepis nana [1]; 25 mg/kg): 0; Mice from which parasite has been eradicated, number (Hymenolepis nana [1]; 50 mg/kg): 14; Mice from which parasite has been eradicated, percentage (Hymenolepis nana [1]; 50 mg/kg): 70%; Mortality (Hymenolepis nana [1]; 50 mg/kg): 0; Mice from which parasite has been eradicated, number (Hymenolepis nana [1]; 100 mg/kg): 18; Mice from which parasite has been eradicated, percentage (Hymenolepis nana [1]; 100 mg/kg): 90%; Mortality (Hymenolepis nana [1]; 100 mg/kg): 0; Mice from which parasite has been eradicated, number (Hymenolepis nana [1]; 200 mg/kg): 20; Mice from which parasite has been eradicated, percentage (Hymenolepis nana [1]; 200 mg/kg): 100%; Mortality (Hymenolepis nana [1]; 200 mg/kg): 0
CC(=O)Oc1ccc(OC(C)=O)c(C(=O)Nc2ncc([N+](=O)[O-])s2)c1 [PH 6056]		0	6	60	0	1	10	
CC(=O)Oc1ccc(Cl)cc1C(=O)Nc1ncc([N+](=O)[O-])s1 [PH 6057]	1	0	7	70	0	2	20	
CC(=O)Oc1ccc(C(=O)Nc2ncc([N+](=O)[O-])s2)c(OC(C)=O)c1 [PH 6058]		0	2	20	0	2	20	
COc1cc(C(=O)Nc2ncc([N+](=O)[O-])s2)cc(OC)c1OC(C)=O [PH 6059]	10	0	1	10	0	2	20	
CC(=O)Oc1ccc(Br)cc1C(=O)Nc1ncc([N+](=O)[O-])s1 [PH 6103]	1	0	4	40	0	2	20	
CC(=O)Oc1cc(OC(C)=O)cc(C(=O)Nc2ncc([N+](=O)[O-])s2)c1 [PH 6161]		0	0	0	0	7	70	
CC(=O)Oc1ccc(C(=O)Nc2ncc([N+](=O)[O-])s2)cc1OC(C)=O [PH 6162]		0	1	10	0	2	20	
CC(=O)Oc1cc(C(=O)Nc2ncc([N+](=O)[O-])s2)cc(OC(C)=O)c1OC(C)=O [PH 6177]		0	0	0	0	0	0	
COc1cc(C(=O)Nc2ncc([N+](=O)[O-])s2)ccc1OC(C)=O [PH 6196]		0	0	0	0	0	0	
CC(=O)Oc1cccc(C(=O)Nc2ncc([N+](=O)[O-])s2)c1OC(C)=O [PH 6239]	10	0	2	20	0	1	10	
